One block for each molecule: values may come before it.
How the values were obtained:
Format in all cases: cell-based
ASIC3 [1] = target: T1, ASIC3 (Rattus norvegicus, UniProt O35240); assay: whole-cell patch clamp, shift of activation pH0.[…]
T1 sequence (O35240 1-533): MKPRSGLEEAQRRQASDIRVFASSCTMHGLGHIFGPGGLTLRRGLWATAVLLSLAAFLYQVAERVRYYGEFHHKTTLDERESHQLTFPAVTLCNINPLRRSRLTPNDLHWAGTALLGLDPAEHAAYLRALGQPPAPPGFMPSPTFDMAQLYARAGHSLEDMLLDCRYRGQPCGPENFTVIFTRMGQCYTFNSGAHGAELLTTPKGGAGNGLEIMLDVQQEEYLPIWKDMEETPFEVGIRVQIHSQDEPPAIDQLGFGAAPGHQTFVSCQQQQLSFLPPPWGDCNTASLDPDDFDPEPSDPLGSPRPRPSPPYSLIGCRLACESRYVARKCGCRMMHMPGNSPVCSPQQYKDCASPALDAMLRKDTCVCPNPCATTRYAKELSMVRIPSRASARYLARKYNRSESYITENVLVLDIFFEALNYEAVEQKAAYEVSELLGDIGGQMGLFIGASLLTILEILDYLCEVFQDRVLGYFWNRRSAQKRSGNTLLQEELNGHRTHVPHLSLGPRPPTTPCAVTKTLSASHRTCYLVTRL

ASIC3 [2] = target: T1, ASIC3; assay: whole-cell patch clamp
ASIC3 [3] = target: T1, ASIC3; assay: whole-cell patch clamp, concentration dependence of shift of activation pH0.[…]

Compound: CCCCC/C=C\C/C=C\C/C=C\C/C=C\CCCC(=O)NCC(=O)O [AG, arachidonyl glycine]
EC50 (ASIC3 [1]): 5.4 ± 1.12 µM

whole-cell patch clamp; pH0.5 shift at 10 μM and concentration dependence at pH (ASIC3 [2]): 0.27 ΔpH0.5 at 10 µM
Compound: CC/C=C\C/C=C\C/C=C\C/C=C\C/C=C\CCCCCC(=O)O [DPA, docosapentaenoic acid]

EC50 (ASIC3 [3]): 11 ± 2 µM
Compound: CCCCC/C=C\C/C=C\C/C=C\C/C=C\CCCC(=O)O [AA, arachidonic acid]

Reference: article PMC9120901 (The Journal of General Physiology, 2022)
